Measurements as given in patent publication US20220151229A1, “Synergistic Herbicidal Combinations” (Clariant International Ltd., priority 2019, published 2022).

How the values were obtained:
Format in all cases: in vivo
Solanum nigrum - SOLNI = experiment: Greenhouse post-emergence herbicide trial, Solanum nigrum
Description: (§1) Standard post emergence herbicide application procedures were used, as described below, to apply inventive compounds in combination with sulfonylurea herbicides.
(§2) Seed of monocotyledonous and dicotyledonous harmful plants such as Brassica napus (BRSNW) Abutilon theophrasti (ABUTH), Alopecurus myosuroides (ALOMY), Amaranthus retroflexus (AMARE), Digitaria Sanguinalis (DIGSA), Echinochloa crus-galli (ECHCG), Erigeron canadensis (ERICA), Galium aparine (GALAP), Lolium perenne (LOLPE), Sectaria viridis (SETVI), Solanun nigrum (SOLNI), Viola arvensis (VIOAR) were sowed in 18 cm^2 pots. The plants were placed in a greenhouse under controlled environmental conditions, and sub-irrigation. About one week after emergence, seedlings were thinned as needed, including removal of any unhealthy or abnormal plants, to create a uniform series of test pots.
(§3) The plants were maintained for the duration of the test in the greenhouse, where they received a mean of 70 μmol m-2 s-1 of light per day/night. Temperatures averages about 24° C. during the day and about 20° C. during the night. Plants were sub-irrigated throughout the test to ensure adequate soil moisture levels.
(§4) Pots were assigned to different treatment in a randomized experimental design. A set of pots was left untreated as a reference against which effects of the treatments could later be evaluated. Application of tested formulations was made in a spray cabin model 01S-15E designed by CheckTec using the following parameters: • Two edge nozzle Lechler OC2, 200 L/ha, 3 bars. • Two edge nozzle Lechler OC3, 500 L/ha, 3 bars.
(§5) The distance of the nozzle from the plants was between 50 to 53 cm. and the nozzle spacing was 50 cm.
(§6) After treatment, pots were returned to the greenhouse until ready for evaluation. Evaluations were performed at different times after application (DAT: days after treatment), depending on the experiment.
(§7) For evaluation of herbicidal effectiveness, all plants in the test were examined by a single technician, who recorded percent control, a visual measurement of the effectiveness of each treatment by comparison with untreated plants. […] The reported % control values represent the average for all replicates of each treatment.
(§8) Iodosulfuron-methyl-sodium and Nicosulfuron were applied as dilutions of the active ingredient in water.

Galium aparine - GALAP = experiment: Greenhouse post-emergence herbicide trial, Galium aparine; details: 200 L/ha, A1 7.5 % w/w
Description: as §1, §2, §3, §4, §5, §6, §7, §8

Lolium perenne - LOLPE = experiment: Greenhouse post-emergence herbicide trial, Lolium perenne; details: 200 L/ha, A1 7.5 % w/w
Description: as §1, §2, §3, §4, §5, §6, §7, §8

Brassica napus - BRSNW = experiment: Greenhouse post-emergence herbicide trial, Brassica napus; details: 200 L/ha, A1 7.5 % w/w
Description: as §1, §2, §3, §4, §5, §6, §7, §8

Sectaria Viridis - SETVI = experiment: Greenhouse post-emergence herbicide trial, Sectaria Viridis; details: 200 L/ha, A1 7.5 % w/w
Description: as §1, §2, §3, §4, §5, §6, §7, §8

Q: With “Pelargonic acid 6 EO ester methyl ether [A1]” as the substance, how does the Effectiveness control (Solanum nigrum - SOLNI; 200 L/ha, A1 0.1 % w/w, 1 DAT) read?
A: 0.00%

Q: And the Effectiveness control (Solanum nigrum - SOLNI; 200 L/ha, A1 0.1 % w/w, 2 DAT)?
A: 0.00%

Q: What about the Effectiveness control (Solanum nigrum - SOLNI; 200 L/ha, A1 0.1 % w/w, 7 DAT) of the same substance?
A: 0.00%

Q: And the Effectiveness control (Solanum nigrum - SOLNI; 200 L/ha, A1 0.1 % w/w, 15 DAT)?
A: 0.00%

Q: What about the Effectiveness control (Solanum nigrum - SOLNI; 200 L/ha, A1 0.1 % w/w, 21 DAT) of the same substance?
A: 0.00%

Q: What about the Effectiveness control (Solanum nigrum - SOLNI; 200 L/ha, A1 2.5 % w/w, 1 DAT) of the same substance?
A: 0.00%

Q: What about the Effectiveness control (Solanum nigrum - SOLNI; 200 L/ha, A1 2.5 % w/w, 2 DAT) of the same substance?
A: 0.00%

Q: And the Effectiveness control (Solanum nigrum - SOLNI; 200 L/ha, A1 2.5 % w/w, 7 DAT)?
A: 0.00%

Q: And the Effectiveness control (Solanum nigrum - SOLNI; 200 L/ha, A1 2.5 % w/w, 15 DAT)?
A: 0.00%

Q: What about the Effectiveness control (Solanum nigrum - SOLNI; 200 L/ha, A1 2.5 % w/w, 21 DAT) of the same substance?
A: 0.00%

Q: What about the Effectiveness control (Solanum nigrum - SOLNI; 200 L/ha, A1 5 % w/w, 1 DAT) of the same substance?
A: 0.75%

Q: What about the Effectiveness control (Solanum nigrum - SOLNI; 200 L/ha, A1 5 % w/w, 2 DAT) of the same substance?
A: 3.50%

Q: And the Effectiveness control (Solanum nigrum - SOLNI; 200 L/ha, A1 5 % w/w, 7 DAT)?
A: 3.50%

Q: What about the Effectiveness control (Solanum nigrum - SOLNI; 200 L/ha, A1 5 % w/w, 15 DAT) of the same substance?
A: 0.00%

Q: And the Effectiveness control (Solanum nigrum - SOLNI; 200 L/ha, A1 5 % w/w, 21 DAT)?
A: 0.00%

Q: And the Effectiveness control (Solanum nigrum - SOLNI; 200 L/ha, A1 10 % w/w, 1 DAT)?
A: 25.00%

Q: And the Effectiveness control (Solanum nigrum - SOLNI; 200 L/ha, A1 10 % w/w, 2 DAT)?
A: 48.50%

Q: What about the Effectiveness control (Solanum nigrum - SOLNI; 200 L/ha, A1 10 % w/w, 7 DAT) of the same substance?
A: 50.50%

Q: And the Effectiveness control (Solanum nigrum - SOLNI; 200 L/ha, A1 10 % w/w, 15 DAT)?
A: 47.50%

Q: What about the Effectiveness control (Solanum nigrum - SOLNI; 200 L/ha, A1 10 % w/w, 21 DAT) of the same substance?
A: 38.75%

Q: What about the Effectiveness control (Solanum nigrum - SOLNI; 500 L/ha, A1 0.1 % w/w, 1 DAT) of the same substance?
A: 0.00%

Q: What about the Effectiveness control (Solanum nigrum - SOLNI; 500 L/ha, A1 0.1 % w/w, 2 DAT) of the same substance?
A: 0.00%

Q: And the Effectiveness control (Solanum nigrum - SOLNI; 500 L/ha, A1 0.1 % w/w, 7 DAT)?
A: 0.00%

Q: What about the Effectiveness control (Solanum nigrum - SOLNI; 500 L/ha, A1 0.1 % w/w, 15 DAT) of the same substance?
A: 0.00%

Q: What about the Effectiveness control (Solanum nigrum - SOLNI; 500 L/ha, A1 0.1 % w/w, 21 DAT) of the same substance?
A: 0.00%

Q: And the Effectiveness control (Solanum nigrum - SOLNI; 500 L/ha, A1 2.5 % w/w, 1 DAT)?
A: 10.00%

Q: And the Effectiveness control (Solanum nigrum - SOLNI; 500 L/ha, A1 2.5 % w/w, 2 DAT)?
A: 21.25%

Q: And the Effectiveness control (Solanum nigrum - SOLNI; 500 L/ha, A1 2.5 % w/w, 7 DAT)?
A: 13.75%

Q: And the Effectiveness control (Solanum nigrum - SOLNI; 500 L/ha, A1 2.5 % w/w, 15 DAT)?
A: 7.75%

Q: What about the Effectiveness control (Solanum nigrum - SOLNI; 500 L/ha, A1 2.5 % w/w, 21 DAT) of the same substance?
A: 5.00%

Q: And the Effectiveness control (Solanum nigrum - SOLNI; 500 L/ha, A1 5 % w/w, 1 DAT)?
A: 26.00%

Q: And the Effectiveness control (Solanum nigrum - SOLNI; 500 L/ha, A1 5 % w/w, 2 DAT)?
A: 42.50%

Q: And the Effectiveness control (Solanum nigrum - SOLNI; 500 L/ha, A1 5 % w/w, 7 DAT)?
A: 32.50%

Q: What about the Effectiveness control (Solanum nigrum - SOLNI; 500 L/ha, A1 5 % w/w, 15 DAT) of the same substance?
A: 28.75%

Q: What about the Effectiveness control (Solanum nigrum - SOLNI; 500 L/ha, A1 5 % w/w, 21 DAT) of the same substance?
A: 27.50%

Q: And the Effectiveness control (Solanum nigrum - SOLNI; 500 L/ha, A1 10 % w/w, 1 DAT)?
A: 65.50%

Q: And the Effectiveness control (Solanum nigrum - SOLNI; 500 L/ha, A1 10 % w/w, 2 DAT)?
A: 75.50%

Q: What about the Effectiveness control (Solanum nigrum - SOLNI; 500 L/ha, A1 10 % w/w, 7 DAT) of the same substance?
A: 72.50%

Q: And the Effectiveness control (Solanum nigrum - SOLNI; 500 L/ha, A1 10 % w/w, 15 DAT)?
A: 63.75%

Q: What about the Effectiveness control (Solanum nigrum - SOLNI; 500 L/ha, A1 10 % w/w, 21 DAT) of the same substance?
A: 53.00%

Q: What about the Effectiveness control (Galium aparine - GALAP; 1 DAT) of the same substance?
A: 31.75%

Q: And the Effectiveness control (Galium aparine - GALAP; 2 DAT)?
A: 34.00%

Q: What about the Effectiveness control (Galium aparine - GALAP; 7 DAT) of the same substance?
A: 35.75%

Q: What about the Effectiveness control (Galium aparine - GALAP; 10 DAT) of the same substance?
A: 20.00%

Q: What about the Effectiveness control (Galium aparine - GALAP; 16 DAT) of the same substance?
A: 10.75%

Q: And the Effectiveness control (Galium aparine - GALAP; 22 DAT)?
A: 10.75%

Q: What about the Effectiveness control (Galium aparine - GALAP; 28 DAT) of the same substance?
A: 10.75%

Q: And the Effectiveness control (Lolium perenne - LOLPE; 1 DAT)?
A: 11.50%

Q: What about the Effectiveness control (Lolium perenne - LOLPE; 2 DAT) of the same substance?
A: 11.50%

Q: What about the Effectiveness control (Lolium perenne - LOLPE; 7 DAT) of the same substance?
A: 5.00%

Q: What about the Effectiveness control (Lolium perenne - LOLPE; 10 DAT) of the same substance?
A: 0.00%

Q: What about the Effectiveness control (Lolium perenne - LOLPE; 16 DAT) of the same substance?
A: 0.00%

Q: And the Effectiveness control (Lolium perenne - LOLPE; 22 DAT)?
A: 0.00%

Q: And the Effectiveness control (Lolium perenne - LOLPE; 28 DAT)?
A: 0.00%

Q: And the Effectiveness control (Brassica napus - BRSNW; 1 DAT)?
A: 74.25%

Q: What about the Effectiveness control (Brassica napus - BRSNW; 2 DAT) of the same substance?
A: 78.00%

Q: What about the Effectiveness control (Brassica napus - BRSNW; 7 DAT) of the same substance?
A: 75.00%

Q: And the Effectiveness control (Brassica napus - BRSNW; 10 DAT)?
A: 56.25%

Q: What about the Effectiveness control (Brassica napus - BRSNW; 16 DAT) of the same substance?
A: 39.25%

Q: What about the Effectiveness control (Brassica napus - BRSNW; 22 DAT) of the same substance?
A: 33.50%

Q: What about the Effectiveness control (Brassica napus - BRSNW; 28 DAT) of the same substance?
A: 32.50%

Q: What about the Effectiveness control (Sectaria Viridis - SETVI; 1 DAT) of the same substance?
A: 19.25%

Q: And the Effectiveness control (Sectaria Viridis - SETVI; 2 DAT)?
A: 21.25%

Q: And the Effectiveness control (Sectaria Viridis - SETVI; 7 DAT)?
A: 21.25%

Q: What about the Effectiveness control (Sectaria Viridis - SETVI; 10 DAT) of the same substance?
A: 20.00%

Q: And the Effectiveness control (Sectaria Viridis - SETVI; 16 DAT)?
A: 16.00%

Q: And the Effectiveness control (Sectaria Viridis - SETVI; 22 DAT)?
A: 16.00%

Q: And the Effectiveness control (Sectaria Viridis - SETVI; 28 DAT)?
A: 0.00%
